# Data: patent publication US9635859B2, “Pesticidal compositions and processes related thereto” (Dow AgroSciences LLC, priority 2012, dated 2017)
# System: Beet Armyworm (Spodoptera exigua)
# Assay: Bioassays on BAW, 128-well diet tray assay
# Type: in vivo
# Conditions: percent mortality, second instar larvae, 50 μg/cm^2 on artificial diet, five to seven days, 25° C.; Table 3
# Method: Certain molecules disclosed in this document were tested against BAW and CEW and CL using procedures described in the following examples. In the reporting of the results, the “BAW & CEW & CL Rating Table” was used (See Table Section).
# Bioassays on BAW (Spodoptera exigua)
# Bioassays on BAW were conducted using a 128-well diet tray assay. one to five second instar BAW larvae were placed in each well (3 mL) of the diet tray that had been previously filled with 1 mL of artificial diet to which 50 μg/cm^2 of the test compound (dissolved in 50 μL of 90:10 acetone-water mixture) had been applied (to each of eight wells) and then allowed to dry. Trays were covered with a clear self-adhesive cover, and held at 25° C., 14:10 light-dark for five to seven days. Percent mortality was recorded for the larvae in each well; activity in the eight wells was then averaged. The results are indicated in the table entitled “Table 3: Assay Results” (See Table Section).
row,Structure (SMILES),BAW Rating
1,"Cc1cc(/C=C/C(c2cc(Cl)cc(Cl)c2)C(F)(F)F)ccc1C(=O)NCc1nnc(C2CC2)o1 (stereo not drawn) [AC89, (E)-N-((5-Cyclopropyl-1,3,4-oxadiazol-2-yl)methyl)-4-(3-(3,5-dichlorophenyl)-4,4,4-trifluorobut-1-en-1-yl)-2-methylbenzamide]",A (50-100)
2,"FC(F)(F)CNC(=S)CNC(=S)c1ccc(/C=C/C(c2cc(Cl)c(Cl)c(Cl)c2)C(F)(F)F)cc1Br (stereo not drawn) [AC90, (E)-2-Bromo-N-(2-thioxo-2-((2,2,2-trifluoroethyl)amino)ethyl)-4-(4,4,4-trifluoro-3-(3,4,5-trichlorophenyl)but-1-en-1-yl)benzothioamide]",A (50-100)
3,"O=C(CNC(=S)c1ccc(/C=C/C(c2cc(Cl)c(Cl)c(Cl)c2)C(F)(F)F)cc1Br)NCC(F)(F)F (stereo not drawn) [AC91, (E)-2-(2-Bromo-4-(4,4,4-trifluoro-3-(3,4,5-trichlorophenyl)but-1-en-1-yl)phenylthioamido)-N-(2,2,2-trifluoroethyl)acetamide]",A (50-100)
4,"O=C(NCC(=S)NCC(F)(F)F)c1ccc(/C=C/C(c2cc(Cl)c(Cl)c(Cl)c2)C(F)(F)F)cc1Br (stereo not drawn) [AC92, (E)-2-Bromo-N-(2-thioxo-2-((2,2,2-trifluoroethyl)amino)ethyl)-4-(4,4,4-trifluoro-3-(3,4,5-trichlorophenyl)but-1-en-1-yl)benzamide]",A (50-100)
5,Cc1cc(/C=C\C(c2cc(Cl)cc(Cl)c2)C(F)(F)F)ccc1C(=O)NCC(=O)NC1CC1 (stereo not drawn) [AC93],A (50-100)
6,"O=C(CNC(=O)c1ccc(/C=C\C(c2cc(Cl)c(Cl)c(Cl)c2)C(F)(F)F)cc1Br)NCC(F)(F)F (stereo not drawn) [AC95, (Z)-2-Bromo-N-(2-oxo-2-((2,2,2-trifluoroethyl)amino)ethyl)-4-(4,4,4-trifluoro-3-(3,4,5-trichlorophenyl)but-1-en-1-yl)benzamide]",A (50-100)
7,O=C(CNC(=O)c1ccc(/C=C/C(c2cc(Cl)c(F)c(Cl)c2)C(F)(F)F)cc1[N+](=O)[O-])NCC(F)(F)F (stereo not drawn) [AC98],A (50-100)
8,O=C(CNC(=O)c1ccc(/C=C/C(c2ccc(F)c(Cl)c2)C(F)(F)F)cc1Br)NCC(F)(F)F (stereo not drawn) [AC99],A (50-100)
9,"CC(=O)N1CCC(NC(=O)c2ccc(/C=C/C(c3cc(Cl)c(Cl)c(Cl)c3)C(F)(F)F)cc2Br)CC1 (stereo not drawn) [AC103, (E)-N-(1-Acetylpiperidin-4-yl)-2-bromo-4-(4,4,4-trifluoro-3-(3,4,5-trichlorophenyl)but-1-en-1-yl)benzamide]",A (50-100)
10,"O=C(NC1CCN(C(=O)CC(F)(F)F)CC1)c1ccc(/C=C/C(c2cc(Cl)c(Cl)c(Cl)c2)C(F)(F)F)cc1Br (stereo not drawn) [AC104, (E)-2-Bromo-4-(4,4,4-trifluoro-3-(3,4,5-trichlorophenyl)but-1-en-1-yl)-N-(1-(3,3,3-trifluoropropanoyl)piperidin-4-yl)benzamide]",A (50-100)
11,"CN1CCC(NC(=O)c2ccc(/C=C/C(c3cc(Cl)c(Cl)c(Cl)c3)C(F)(F)F)cc2Br)CC1 (stereo not drawn) [AC106, (E)-2-Bromo-N-(1-methylpiperidin-4-yl)-4-(4,4,4-trifluoro-3-(3,4,5-trichlorophenyl)but-1-en-1-yl)benzamide]",A (50-100)
12,N#CCN1CCC(NC(=O)c2ccc(/C=C/C(c3cc(Cl)c(Cl)c(Cl)c3)C(F)(F)F)cc2Br)CC1 (stereo not drawn) [AC107],B (More than 0-Less than 50)
13,"O=C(NC1CCN(C2COC2)CC1)c1ccc(/C=C/C(c2cc(Cl)c(Cl)c(Cl)c2)C(F)(F)F)cc1Br (stereo not drawn) [AC108, (E)-2-Bromo-N-(1-(oxetan-3-yl)piperidin-4-yl)-4-(4,4,4-trifluoro-3-(3,4,5-trichlorophenyl)but-1-en-1-yl)benzamide]",B (More than 0-Less than 50)
14,CONC(=O)CNC(=O)c1ccc(/C=C/C(c2cc(Cl)c(Cl)c(Cl)c2)C(F)(F)F)cc1Br (stereo not drawn) [AC110],A (50-100)
15,C=CCNC(=O)CNC(=O)c1ccc(/C=C/C(c2cc(Cl)c(Cl)c(Cl)c2)C(F)(F)F)cc1Br (stereo not drawn) [AC111],A (50-100)
16,O=C(NCCc1ccc(Cl)nc1)c1ccc(/C=C/C(c2cc(Cl)c(Cl)c(Cl)c2)C(F)(F)F)cc1Br (stereo not drawn) [AC113],B (More than 0-Less than 50)
17,"O=C(NC1CCNCC1)c1ccc(/C=C/C(c2cc(Cl)c(Cl)c(Cl)c2)C(F)(F)F)cc1Br (stereo not drawn) [AC114, (E)-2-Bromo-N-(piperidin-4-yl)-4-(4,4,4-trifluoro-3-(3,4,5-trichlorophenyl)but-1-en-1-yl)benzamide]",A (50-100)
18,"Cc1cc(/C=C/C(c2cc(Cl)cc(Cl)c2)C(F)(F)F)ccc1C(=S)NCc1ccc(Cl)nc1 (stereo not drawn) [AC115, (E)-N-((6-Chloropyridin-3-yl)methyl)-4-(3-(3,5-dichlorophenyl)-4,4,4-trifluorobut-1-en-1-yl)-2-methylbenzothioamide]",A (50-100)
19,Cc1cc(/C=C/C(c2cc(Cl)cc(Cl)c2)C(F)(F)F)ccc1C(=O)N(C)Cc1ccc(Cl)nc1 (stereo not drawn) [AC117],A (50-100)
20,Cc1cc(/C=C/C(c2cc(Cl)cc(Cl)c2)C(F)(F)F)ccc1C(=O)NCC1CCCO1 (stereo not drawn) [AC118],A (50-100)
21,O=C(CC(F)(F)F)NC1CCCc2cc(/C=C/C(c3cc(Cl)c(Cl)c(Cl)c3)C(F)(F)F)ccc21 (stereo not drawn) [BC5],A (50-100)
22,O=C(NC1CCc2cc(/C=C/C(c3cc(Cl)c(Cl)c(Cl)c3)C(F)(F)F)ccc21)C1CC1 (stereo not drawn) [BC6],A (50-100)
23,O=C(NC1CCCc2cc(/C=C/C(c3cc(Cl)c(Cl)c(Cl)c3)C(F)(F)F)ccc21)C1CC1 (stereo not drawn) [BC7],A (50-100)
24,O=C(CC(F)(F)F)NC1CCc2cc(/C=C/C(c3cc(Cl)c(F)c(Cl)c3)C(F)(F)F)ccc21 (stereo not drawn) [BC8],A (50-100)

row,Structure (SMILES),BAW Rating
1,O=C(Cc1ccc(Cl)nc1)NC1CCc2cc(/C=C/C(c3cc(Cl)c(F)c(Cl)c3)C(F)(F)F)ccc21 (stereo not drawn) [BC9],A (50-100)
2,"Fc1c(Cl)cc(C(/C=C/c2ccc3c(c2)CCC3NCCC(F)(F)F)C(F)(F)F)cc1Cl (stereo not drawn) [BC10, (E)-5-(3-(3,5-Dichloro-4-fluorophenyl)-4,4,4-trifluorobut-1-en-1-yl)-N-(3,3,3-trifluoropropyl)-2,3-dihydro-1H-inden-1-amine]",A (50-100)
3,"O=C(CC(F)(F)F)NCC(=O)n1ccc2cc(/C=C/C(c3cc(Cl)c(F)c(Cl)c3)C(F)(F)F)ccc21 (stereo not drawn) [BC13, (E)-N-(2-(5-(3-(3,5-Dichloro-4-fluorophenyl)-4,4,4-trifluorobut-1-en-1-yl)-1H-indol-1-yl)-2-oxoethyl)-3,3,3-trifluoropropanamide]",A (50-100)
4,"O=C(Cn1ncc2cc(/C=C/C(c3cc(Cl)c(F)c(Cl)c3)C(F)(F)F)ccc2c1=O)NCC(F)(F)F (stereo not drawn) [BC14, (E)-2-(6-(3-(3,5-Dichloro-4-fluorophenyl)-4,4,4-trifluorobut-1-en-1-yl)-1-oxophthalazin-2(1H)-yl)-N-(2,2,2-trifluoroethyl)acetamide]",A (50-100)
5,O=C(NCc1ccc(/C=C/C(c2cc(Cl)cc(Cl)c2)C(F)(F)F)cc1)C1CC1 (stereo not drawn) [CC2],A (50-100)
6,O=C(CC(F)(F)F)NCc1ccc(/C=C/C(c2cc(Cl)cc(Cl)c2)C(F)(F)F)cc1 (stereo not drawn) [CC3],A (50-100)
7,CCC(=O)NCc1ccc(/C=C/C(c2cc(Cl)cc(Cl)c2)C(F)(F)F)cc1 (stereo not drawn) [CC4],A (50-100)
8,O=C(NCc1ccc(/C=C/C(c2cc(Cl)c(Cl)c(Cl)c2)C(F)(F)F)cc1)C1CC1 (stereo not drawn) [CC5],A (50-100)
9,O=C(CC(F)(F)F)NCc1ccc(/C=C/C(c2cc(Cl)c(Cl)c(Cl)c2)C(F)(F)F)cc1 (stereo not drawn) [CC6],A (50-100)
10,"CC(=O)NCc1ccc(/C=C/C(c2cc(Cl)cc(Cl)c2)C(F)(F)F)cc1Cl (stereo not drawn) [CC7, (E)-N-(2-Chloro-4-(3-(3,5-dichlorophenyl)-4,4,4-trifluorobut-1-en-1-yl)benzyl)acetamide]",A (50-100)
11,O=C(NCc1ccc(/C=C/C(c2cc(Cl)cc(Cl)c2)C(F)(F)F)cc1Cl)C1CC1 (stereo not drawn) [CC8],A (50-100)
12,O=C(CC(F)(F)F)NCc1ccc(/C=C/C(c2cc(Cl)cc(Cl)c2)C(F)(F)F)cc1Cl (stereo not drawn) [CC9],A (50-100)
13,O=C(NCc1ccc(/C=C/C(c2cc(Cl)c(Cl)c(Cl)c2)C(F)(F)F)cc1Cl)C1CC1 (stereo not drawn) [CC11],A (50-100)
14,O=C(Cc1ccc(Cl)nc1)NCc1ccc(/C=C/C(c2cc(Cl)c(Cl)c(Cl)c2)C(F)(F)F)cc1Cl (stereo not drawn) [CC14],A (50-100)
15,O=C(NCc1ccc(/C=C/C(c2cc(Cl)c(F)c(Cl)c2)C(F)(F)F)cc1Cl)C1CC1 (stereo not drawn) [CC15],A (50-100)
16,O=C(NCc1ccc(/C=C/C(c2ccc(Cl)c(Cl)c2)C(F)(F)F)cc1Cl)C1CC1 (stereo not drawn) [CC17],A (50-100)
17,O=C(CC(F)(F)F)NCc1ccc(/C=C/C(c2ccc(Cl)c(Cl)c2)C(F)(F)F)cc1Cl (stereo not drawn) [CC18],A (50-100)
18,CSCCC(=O)NCc1ccc(/C=C/C(c2cc(Cl)c(Cl)c(Cl)c2)C(F)(F)F)cc1Cl (stereo not drawn) [CC19],A (50-100)
19,FC(F)(F)C(/C=C/c1ccc(CNC(=S)C2CC2)c(Cl)c1)c1cc(Cl)c(Cl)c(Cl)c1 (stereo not drawn) [CC20],A (50-100)
20,O=C(NCc1ccc(/C=C/C(c2cc(Cl)cc(Cl)c2)C(F)(F)F)cc1C(F)(F)F)C1CC1 (stereo not drawn) [CC21],A (50-100)
21,O=C(NCc1ccc(/C=C/C(c2cc(Cl)c(Cl)c(Cl)c2)C(F)(F)F)cc1C(F)(F)F)C1CC1 (stereo not drawn) [CC22],A (50-100)
22,O=C(NCc1ccc(/C=C/C(c2cc(Cl)c(Cl)c(Cl)c2)C(F)(F)F)cc1C(F)(F)F)c1cccnc1 (stereo not drawn) [CC23],A (50-100)
23,O=C(CC(F)(F)F)NCc1ccc(/C=C/C(c2cc(Cl)c(Cl)c(Cl)c2)C(F)(F)F)cc1C(F)(F)F (stereo not drawn) [CC24],A (50-100)
24,O=C(CC(F)(F)F)NCc1ccc(/C=C/C(c2cc(Cl)c(Cl)c(Cl)c2)C(F)(F)F)cc1Br (stereo not drawn) [CC25],A (50-100)
